Like-named read-outs stand apart in the source and are kept apart here.
How the values were obtained:
[1] = Stability in cryopreserved hepatocytes, dog
Experimental: (§1) Mixed-gender human cryopreserved hepatocytes, male Sprague-Dawley rat cryopreserved hepatocytes, and male Beagle dog cryopreserved hepatocytes were purchased from XenoTech. The hepatocytes were thawed and prepared according to the vendor's instructions, pooled into Krebs Henseleit buffer (KHB, pH 7.4), and kept on ice prior to the experiments. […] The final DMSO content in the incubation mixture was ≤0.1%. […] Aliquots of the test article were withdrawn (n=1) at 0, 15, 30, 60, and 120 minutes. […] Aliquots of 7-HC were withdrawn (n=1) at 0 and 15 minutes. The reaction was immediately terminated by adding two volumes of ice-cold acetonitrile (ACN) to the test article samples and three volumes of ACN containing internal standard to the positive control samples. The samples were then mixed and centrifuged to precipitate proteins. An aliquot of the supernatant was then diluted with water and analyzed by LC-MS/MS against calibration standards prepared in a matched matrix. […] All test article samples were analyzed for the dosed prodrugs as well as the drug, treprostinil. The test article concentration was compared to the concentration at time 0 to determine the percent of test article remaining at each time point. Half-lives and clearance values were calculated using GraphPad software, fitting to a single-phase exponential decay equation.

[2] = dog
[3] = Stability in liver microsomes, human
Experimental: (§2) Mixed-gender human liver microsomes, male Sprague-Dawley rat liver microsomes, and male Beagle dog liver microsomes were purchased from XenoTech. The reaction mixture, minus NADPH, was prepared as described below. […] An aliquot of the reaction mixture (without cofactor) was equilibrated in a shaking water bath at 37° C. for 5 minutes. The reaction was initiated by the addition of cofactor, and the mixture was incubated in a shaking water bath at 37° C. Aliquots (200 μL) were withdrawn at 0, 10, 20, 30, and 60 minutes. Test article samples were immediately combined with 400 μL of ice-cold acetonitrile (ACN) to terminate the reaction. […] The samples were then mixed and centrifuged to precipitate proteins. Aliquots of the supernatant were removed, diluted 1:1 into distilled water containing internal standard, and analyzed by LC-MS/MS against calibration standards prepared in a matched matrix. All samples were analyzed for the dosed prodrugs as well as the drug, treprostinil. The test article concentration was compared to the concentration at time 0 to determine the percent of test article remaining at each time point. Half-lives and clearance were calculated using GraphPad software, fitting to a single-phase exponential decay equation.
(§3) • Liver Microsomes 0.5 mg/mL • NADPH (cofactor) 1 mM • Potassium Phosphate, pH 7.4 100 mM • Magnesium Chloride 5 mM • Test Article 1 μM

[4] = rat
[5] = Stability in cryopreserved hepatocytes, human
Experimental: as §1

[6] = Stability in cryopreserved hepatocytes, rat
Experimental: as §1

[7] = Stability in liver microsomes, dog
Experimental: as §2, §3

[8] = Stability in liver microsomes, rat
Experimental: as §2, §3

[9] = Hydrolysis of prodrugs to treprostinil at pH 6, 7, 8 and 40 C; format: physicochemical
From the text: Tables 24, 25 and 26 present data for hydrolysis of selected treprostinil prodrugs at pH 6, 7 and 8, respectively, and 40 C.

[10] = Stability in human subcutaneous skin homogenate; settings: Skin Homogenate, Human
Experimental: The pool of skin homogenate was prepared by combining equal volumes of three lots that were tested in the initial skin homogenate lot assessment experiments.
A stock solution of calcein-AM was first prepared at 5 mM in DMSO, followed by a serial dilution into methanol at a concentration of 100 μM. 495 μL of skin homogenate was thawed and warmed to 37° C. A 5 μL aliquot of the 100 μM calcein-AM solution was spiked into the skin homogenate, for a final calcein-AM dosing concentration of 1 μM. After briefly mixing, 150 μL aliquots were removed in triplicate and transferred to 96-well Falcon plates. The plates were placed onto a Thermomixer and maintained at 37° C., with gentle shaking for the duration of the experiment. At each time point (0, 15, 30, 60, and 120 minutes), the plate was removed from the Thermomixer and transferred to a FLUOstar® plate reader, and the formation of calcein (Sigma) was monitored by fluorescence (490/515 nm). Calibration standards of calcein were prepared in distilled water by serial dilutions of a calcein DMSO stock at final concentrations ranging from 1 μM to 1 nM. All samples and standards were read concurrently (Table 13).
For each of the test articles, 495 μL of skin homogenate was added to triplicate centrifuge tubes. To each tube, 5 μL of a 100 μM solution of test article was added, for a final test article dosing concentration of 1 μM. The tubes were placed onto a Thermomixer and maintained at 37° C. with gentle shaking for the duration of the experiment. At each time point (0, 30, 60, and 120 minutes), a 100 μL aliquot was removed from each tube and combined with 200 μL of acetonitrile to stop the stability reaction. The tubes were mixed and centrifuged at 3000 rpm for 10 minutes. Aliquots of supernatant were removed and diluted 1:1 with distilled water containing internal standard (2 μM treprostinil-d4). Calibration standards for the treprostinil analysis were prepared for each test article in a surrogate matrix (supernatant from a mixture of 1:2 human plasma:acetonitrile), at concentrations ranging from 1 μM to 1 nM. Calibration standards were also diluted 1:1 with distilled water containing internal standard. The disappearance of each individual test article was monitored, as well as the formation of treprostinil (Table 14 and Table 15).

CCCCCC(CCC1C(O)CC2Cc3c(cccc3OCC(=O)O)CC21)OC(=O)OC (centres unmarked) [IV]
AUC ([1]; dog): 47.99 µmol·min/L
AUC [2]: 55.95 µmol·min/L
AUC ([3]; human): 16.85 µmol·min/L
AUC [4]: 49.70 µmol·min/L
AUC ([5]; human): 39.76 µmol·min/L
AUC ([6]; rat): 70.03 µmol·min/L

CCCCCC(CCC1C(O)CC2Cc3c(cccc3OCC(=O)O)CC21)OC(=O)c1ccc(OC(F)(F)F)cc1 (centres unmarked) [LXIII]
AUC [2]: 14.33 µmol·min/L
Trep Concentration 0 min [7]: 0.104 µM
Trep Concentration 10 min [7]: 0.16 µM
Trep Concentration 20 min [7]: 0.222 µM
Trep Concentration 30 min [7]: 0.243 µM
Trep Concentration 60 min [7]: 0.342 µM
Trep Concentration 0 min [8]: 0.0393 µM
Trep Concentration 10 min [8]: 0.0539 µM
Trep Concentration 20 min [8]: 0.0653 µM
Trep Concentration 30 min [8]: 0.0747 µM
Trep Concentration 60 min [8]: 0.0824 µM
Trep Concentration 0 min [3]: 0.12 µM
Trep Concentration 10 min [3]: 0.184 µM
Trep Concentration 20 min [3]: 0.24 µM
Trep Concentration 30 min [3]: 0.268 µM
Trep Concentration 60 min [3]: 0.275 µM
AUC ([3]; human): 14.33 µmol·min/L
AUC [4]: 4.12 µmol·min/L

CCCCCC(CCC1C(O)CC2Cc3c(cccc3OCC(=O)O)CC21)OC(=O)c1ccc(O)cc1 (centres unmarked) [Prodrug LXVIII]
Hydrolysis to treprostinil, % Area, t = 1 week ([9]; pH 6, 40 C.): 0.00 % Area
Hydrolysis to treprostinil, % Area, t = 2 weeks ([9]; pH 6, 40 C.): 0.00 % Area
Hydrolysis to treprostinil, % Area, t = 3 weeks ([9]; pH 6, 40 C.): 0.00 % Area
Hydrolysis to treprostinil, % Area, t = 1 week ([9]; pH 7, 40 C.): 0.00 % Area
Hydrolysis to treprostinil, % Area, t = 2 weeks ([9]; pH 7, 40 C.): 0.00 % Area
Hydrolysis to treprostinil, % Area, t = 3 weeks ([9]; pH 7, 40 C.): 0.00 % Area
Hydrolysis to treprostinil, % Area, t = 1 week ([9]; pH 8, 40 C.): 0.00 % Area
Hydrolysis to treprostinil, % Area, t = 2 weeks ([9]; pH 8, 40 C.): 0.00 % Area
Hydrolysis to treprostinil, % Area, t = 3 weeks ([9]; pH 8, 40 C.): 0.00 % Area

CCCCCC(CCC1C(O)CC2Cc3c(cccc3OCC(=O)O)CC21)OC(=O)c1ccc(O)c(O)c1 (centres unmarked) [Prodrug LXVI]
Hydrolysis to treprostinil, % Area, t = 1 week ([9]; pH 6, 40 C.): 0.47 % Area
Hydrolysis to treprostinil, % Area, t = 2 weeks ([9]; pH 6, 40 C.): 1.2 % Area
Hydrolysis to treprostinil, % Area, t = 3 weeks ([9]; pH 6, 40 C.): 1.9 % Area
Hydrolysis to treprostinil, % Area, t = 1 week ([9]; pH 7, 40 C.): 0.05 % Area
Hydrolysis to treprostinil, % Area, t = 2 weeks ([9]; pH 7, 40 C.): 1.0 % Area
Hydrolysis to treprostinil, % Area, t = 3 weeks ([9]; pH 7, 40 C.): 1.5 % Area
Hydrolysis to treprostinil, % Area, t = 1 week ([9]; pH 8, 40 C.): 0.73 % Area
Hydrolysis to treprostinil, % Area, t = 2 weeks ([9]; pH 8, 40 C.): 1.6 % Area
Hydrolysis to treprostinil, % Area, t = 3 weeks ([9]; pH 8, 40 C.): 2.6 % Area

CCCCCC(CCC1C(O)CC2Cc3cccc(OCC(=O)O)c3CC21)OC(=O)CCC(=O)N1CCN(C)CC1 (centres unmarked) [XXXIV]
AUC ([1]; Hepatocytes, Dog, AUC of treprostinil concentration 0-120 min): 1.30 µmol·min/L
Trep Concentration (μM) 0 min ([1]; Hepatocytes, Dog, treprostinil formed from test article dosed, 0 min): 0 µM
Trep Concentration (μM) 15 min ([1]; Hepatocytes, Dog, treprostinil formed from test article dosed, 15 min): 0 µM
Trep Concentration (μM) 30 min ([1]; Hepatocytes, Dog, treprostinil formed from test article dosed, 30 min): 0.0101 µM
Trep Concentration (μM) 60 min ([1]; Hepatocytes, Dog, treprostinil formed from test article dosed, 60 min): 0.0153 µM
Trep Concentration (μM) 120 min ([1]; Hepatocytes, Dog, treprostinil formed from test article dosed, 120 min): 0.0127 µM
Trep Concentration 0 min ([7]; Liver Microsomes, Dog, 0 min): 0 µM
Trep Concentration 10 min ([7]; Liver Microsomes, Dog, 10 min): 0 µM
Trep Concentration 20 min ([7]; Liver Microsomes, Dog, 20 min): 0 µM
Trep Concentration 30 min ([7]; Liver Microsomes, Dog, 30 min): 0 µM
Trep Concentration 60 min ([7]; Liver Microsomes, Dog, 60 min): 0.0104 µM
AUC ([7]; Liver Microsomes, Dog, treprostinil 0-60 min): 0.16 µmol·min/L
Trep Concentration 0 min ([8]; Liver Microsomes, Rat, 0 min): 0 µM
Trep Concentration 10 min ([8]; Liver Microsomes, Rat, 10 min): 0 µM
Trep Concentration 20 min ([8]; Liver Microsomes, Rat, 20 min): 0.0132 µM
Trep Concentration 30 min ([8]; Liver Microsomes, Rat, 30 min): 0.0158 µM
Trep Concentration 60 min ([8]; Liver Microsomes, Rat, 60 min): 0.0224 µM
AUC ([8]; Liver Microsomes, Rat, treprostinil 0-60 min): 0.78 µmol·min/L
Trep Concentration 0 min ([10]; 0 min): 0 µM
Trep Concentration 30 min ([10]; 30 min): 0 µM
Trep Concentration 60 min ([10]; 60 min): 0 µM
Trep Concentration 120 min ([10]; 120 min): 0 µM
AUC ([10]; treprostinil 0-120 min): 0.00 µmol·min/L
Trep Concentration 0 min ([3]; Liver Microsomes, Human, 0 min): 0 µM
Trep Concentration 10 min ([3]; Liver Microsomes, Human, 10 min): 0 µM
Trep Concentration 20 min ([3]; Liver Microsomes, Human, 20 min): 0 µM
Trep Concentration 30 min ([3]; Liver Microsomes, Human, 30 min): 0 µM
Trep Concentration 60 min ([3]; Liver Microsomes, Human, 60 min): 0 µM
AUC ([3]; Liver Microsomes, Human, treprostinil 0-60 min): 0.00 µmol·min/L
AUC ([5]; Hepatocytes, Human, AUC of treprostinil concentration 0-120 min): 1.90 µmol·min/L
Trep Concentration (μM) 0 min ([5]; Hepatocytes, Human, treprostinil formed from test article dosed, 0 min): 0 µM
Trep Concentration (μM) 15 min ([5]; Hepatocytes, Human, treprostinil formed from test article dosed, 15 min): 0 µM
Trep Concentration (μM) 30 min ([5]; Hepatocytes, Human, treprostinil formed from test article dosed, 30 min): 0.0107 µM
Trep Concentration (μM) 60 min ([5]; Hepatocytes, Human, treprostinil formed from test article dosed, 60 min): 0.0174 µM
Trep Concentration (μM) 120 min ([5]; Hepatocytes, Human, treprostinil formed from test article dosed, 120 min): 0.0293 µM
AUC ([6]; Hepatocytes, Rat, AUC of treprostinil concentration 0-120 min): 8.62 µmol·min/L
Trep Concentration (μM) 0 min ([6]; Hepatocytes, Rat, treprostinil formed from test article dosed, 0 min): 0 µM
Trep Concentration (μM) 15 min ([6]; Hepatocytes, Rat, treprostinil formed from test article dosed, 15 min): 0.023 µM
Trep Concentration (μM) 30 min ([6]; Hepatocytes, Rat, treprostinil formed from test article dosed, 30 min): 0.0447 µM
Trep Concentration (μM) 60 min ([6]; Hepatocytes, Rat, treprostinil formed from test article dosed, 60 min): 0.0915 µM
Trep Concentration (μM) 120 min ([6]; Hepatocytes, Rat, treprostinil formed from test article dosed, 120 min): 0.105 µM

Source: patent US12491170B2, “Stable treprostinil prodrugs” (United Therapeutics Corporation, priority 2020, dated 2025)
